In patent US20260356817A1, “AMINOPYRIMIDINE AND AMINOTRIAZINE DERIVATIVES AS MYC PROTEIN MODULATORS” (Sanford Burnham Prebys Medical Discovery Institute, priority 2022, published 2026):
Where two headings read alike, the source gives them in different places.

System: Myc
Experiment: Myc inhibition assay: Myc expression per cell by anti-Myc immunofluorescence, high-content imaging
Assay type: cell-based, human (patient-derived medulloblastoma xenograft cells)
Conditions: medulloblastoma PDX cells, 4 h
Method in brief: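 Cells from Myc-driven medulloblastoma patient-derived orthotopic xenografts, propagated only in NSG mouse cerebellum, were dissociated and plated in serum-free medium. After overnight recovery, compounds were applied for 4 hours; cells were then fixed, stained for Myc and DAPI, and per-cell Myc quantified by high-content imaging to derive IC50.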

[1] = Table 1, read-out: IC50 (Myc inhibition)
[2] = Table 2, read-out: MYC Inhibition IC50

Row | Structure (SMILES) | IC50 [1] [µM] | IC50 [2] [µM]
1 | FC(F)(F)c1cccc(Nc2nccc(-c3cnc4nc[nH]c4c3)n2)c1 [Compound 161, 4-(1H-imidazo[4,5-b]pyridin-6-yl)-N-(3-(trifluoromethyl)phenyl)pyrimidin-2-amine] | < 0.2 | < 0.2
2 | COc1cc(-c2ccnc(Nc3ccccc3)n2)ncn1 [Compound 162, 6′-methoxy-N-phenyl-[4,4′-bipyrimidin]-2-amine] | 10 to 100 | 10 to 100
3 | COc1nccc(-c2ccnc(Nc3ccccc3)n2)n1 [Compound 163, 2′-Methoxy-N-phenyl-[4,4′-bipyrimidin]-2-amine] | 10 to 100 | 10 to 100
4 | Fc1cccc(Nc2nccc(-c3ccc4[nH]ncc4c3)n2)c1 [Compound 165, N-(3-Fluorophenyl)-4-(1H-indazol-5-yl)pyrimidin-2-amine] | 1 to 10 | 1 to 10
5 | COc1cc(-c2ccnc(Nc3cc(C(F)(F)F)ccn3)n2)ccn1 [Compound 166, 4-(2-methoxypyridin-4-yl)-N-(4-(trifluoromethyl)pyridin-2-yl)pyrimidin-2-amine] | 10 to 100 | 10 to 100
6 | Oc1cc(-c2ccnc(Nc3cccc(C(F)(F)F)n3)n2)ccn1 [Compound 167, 4-(2-((6-(trifluoromethyl)pyridin-2-yl)amino)pyrimidin-4-yl)pyridin-2-ol] | 10 to 100 | 10 to 100
7 | Oc1ccc(-c2ccnc(Nc3cc(F)ccn3)n2)nc1 [Compound 170, 6-(2-((4-fluoropyridin-2-yl)amino)pyrimidin-4-yl)pyridin-3-ol] | 1 to 10 | 1 to 10
8 | FC(F)(F)c1cccc(Nc2nccc(-c3ccc4cc[nH]c4c3)n2)c1 [Compound 172, 4-(1H-indol-6-yl)-N-(3-(trifluoromethyl)phenyl)pyrimidin-2-amine] | 1 to 10 | 1 to 10
9 | Oc1cccc(-c2ccnc(Nc3cccc(C(F)(F)F)c3)n2)c1 [Compound 173, 3-(2-((3-(trifluoromethyl)phenyl)amino)pyrimidin-4-yl)phenol] | 10 to 100 | 10 to 100
10 | COc1cc(-c2ccnc(Nc3ccncn3)n2)ccn1 [Compound 177, 4-(2-methoxypyridin-4-yl)-N-(pyrimidin-4-yl)pyrimidin-2-amine] | 10 to 100 | 10 to 100
11 | Oc1cc(-c2ccnc(Nc3cncnc3)n2)ccn1 [Compound 178, 4-(2-(pyrimidin-5-ylamino)pyrimidin-4-yl)pyridin-2-ol] | 10 to 100 | 10 to 100
12 | COc1cc(-c2ccnc(Nc3cncnc3)n2)ccn1 [Compound 179, 4-(2-methoxypyridin-4-yl)-N-(pyrimidin-5-yl)pyrimidin-2-amine] | 10 to 100 | 10 to 100

Now from value to compound:

Row | IC50 [1] [µM] | IC50 [2] [µM] | Structure (SMILES)
13 | 1 to 10 | 1 to 10 | FC(F)(F)c1cccc(Nc2nccc(-c3ccc4cn[nH]c4c3)n2)c1 [Compound 164, 4-(1H-indazol-6-yl)-N-(3-(trifluoromethyl)phenyl)pyrimidin-2-amine]
14 | 10 to 100 | 10 to 100 | COc1cc(-c2ccnc(Nc3cccc(C(F)(F)F)n3)n2)ccn1 [Compound 168, 4-(2-methoxypyridin-4-yl)-N-(6-(trifluoromethyl)pyridin-2-yl)pyrimidin-2-amine]
15 | 10 to 100 | 10 to 100 | Fc1cccc(Nc2nccc(-c3cnc4[nH]ccc4c3)n2)c1 [Compound 169, N-(3-fluorophenyl)-4-(1H-pyrrolo[2,3-b]pyridin-5-yl)pyrimidin-2-amine]
16 | 10 to 100 | 10 to 100 | COc1ccc(-c2ccnc(Nc3cccc(F)c3)n2)nc1 [Compound 174, N-(3-fluorophenyl)-4-(5-methoxypyridin-2-yl)pyrimidin-2-amine]
17 | 10 to 100 | 10 to 100 | Oc1cc(-c2ccnc(Nc3ccncn3)n2)ccn1 [Compound 175, 4-(2-(pyrimidin-4-ylamino)pyrimidin-4-yl)pyridin-2-ol]
18 | 1 to 10 | 1 to 10 | COc1ccc(-c2ccnc(Nc3cccc(F)c3)n2)s1 [Compound 176, N-(3-fluorophenyl)-4-(5-methoxythiophen-2-yl)pyrimidin-2-amine]
